# Laboratory results as given in patent publication US20250236616A1, “IMMUNOMODULATING AZALIDES” (Zoetis Services LLC, priority 2021, published 2025).
# System: TNF-α
# Experiment: Whole bovine blood assay, LPS-induced TNF-α
# Format: cell-based
# Details: fresh whole bovine blood, LPS stimulant; top drug concentration 250 μM
# Description: Whole Blood Assay-Fresh whole bovine blood samples were collected into heparinized vacutainer tubes. Assay plates were prepared with 25 μL of drug diluted in PBS at varying concentration in 96 round bottom wells, then 225 μL of blood was added and plates incubated at 37° C. for 4 hours. Cells were stimulated with LPS (or PBS for controls) by adding 25 μL to the plates at a final concentration of 1 μg/mL and incubated at 37° C. for 18 hours. To collect plasma, plates were centrifuged at 2,000×g for 10 minutes and 100 μL of supernatant was transferred to a 96 well polypropylene plate that was sealed and stored at −80° C. Samples were assayed for cytokines using the Meso Scale Discovery (MSD) platform (described below). This same MSD platform was used to assess cytokines in the plasma collected directly from drug treated animals.
# Cytokine Detection—An MSD U-Plex cytokine assay was developed following the MSD U-Plex protocol guide and included biotinylated capture antibodies against: bovine Interleukin (IL)-1β (Biorad), bovine IL-6 (R&D Systems) and bovine tumor necrosis factor (TNF)-α (R&D Systems). […] Assay calibrators (Kingfisher) were diluted to a concentration of […] in control lithium heparin plasma, followed by 4-fold serial dilutions into plasma. […] Antibodies were used at the following concentrations: anti-IL-1β at 1 μg/mL, anti-IL-6 at 1 μg/mL and anti-TNF-α at 0.5 μg/mL. Cytokines were quantified according to manufacturer's instructions using a chemiluminescent readout. In brief, 0.5 mL of all biotinylated antibodies were diluted to 10 μg/mL with Diluent 100 and paired to their respective linkers by adding 750 μL of supplied Linker solution and incubated for 30 minutes followed by addition of Stop solution for another 30 minutes. The linked antibodies were then diluted 10-fold into Stop solution. Plates were coated by adding 50 μL of antibody solutions per well and incubated covered and shaking for 1 hour at room temperature. Plates were washed three times with PBS/Tween20 prior to samples or standards being added at 30 μL per well and incubated as above. Plates were washed three times before detection antibodies were added along with 2% goat and rabbit serum to block and incubated same as above. Plates were washed a further three times before addition of 150 μL 2X Read buffer and read immediately on the SI6000 instrument (MSD). For soluble protein levels, a BCA protein kit (Thermofisher) was used. The cytokine concentrations (pg/mL) were normalized to the total protein levels for each sample. [Bassel et. al., BMC Veterinary Research (2020) 16:168]
# Therefore, a fresh whole bovine blood assay was developed with LPS as a stimulant (TLR-4 agonist) and with IL-1β and TNF-α as the read-out. Compounds of the invention were evaluated against a positive control for their ability to inhibit LPS-induced IL-1β and TNF-α as an overall evaluation of relative potency and modulation of target pathways.
# TNFα is a cell signaling protein, cytokine, that plays a key role in both acute and chronic inflammation. In the bovine whole blood in vitro screening assay the inhibition of TNFα as induced by stimulation by lipopolysaccharide (LPS) and as measured by half the maximal inhibitory concentration (IC50) is recognized as the primary biomarker of immunomodulation potency upon pretreatment with the compounds of the invention. IL-1 B is a mediator of the inflammation response and is involved in a number of cellular activities including proliferation, differentiation and apoptosis. IL-1ß is also released upon cellular stress or cytotoxicity or upon TLR stimulation. […] In order to estimate a therapeutic index from the in vitro assay a differential between the TNFα IC50 (immunomodulation potency) versus the perceived cellular toxicity concentration (IL-1β release or overstimulation) was utilized.
row,Structure (SMILES),IC50
1,CCOCCNC[C@]1(O)[C@H](C)O[C@@H](O[C@H]2[C@H](C)[C@@H](O[C@@H]3O[C@H](C)C[C@H](N(C)S(=O)(=O)Nc4ccc(C(F)(F)F)cc4)[C@H]3O)[C@](C)(O)C[C@@H](C)CN[C@H](C)[C@@H](O)[C@](C)(O)[C@@H](CC)OC(=O)[C@@H]2C)C[C@@]1(C)OC [Example B-83],30 µM
2,CC[C@H]1OC(=O)[C@H](C)[C@@H](O[C@H]2C[C@@](C)(OC)[C@](O)(CNCCC3CCOCC3)[C@H](C)O2)[C@H](C)[C@@H](O[C@@H]2O[C@H](C)C[C@H](N(C)S(=O)(=O)Nc3ccc(C(F)(F)F)cc3)[C@H]2O)[C@](C)(O)C[C@@H](C)CN[C@H](C)[C@@H](O)[C@]1(C)O [Example B-66],30 µM
3,CC[C@H]1OC(=O)[C@H](C)[C@@H](O[C@H]2C[C@@](C)(OC)[C@](O)(CNC3CCCC3)[C@H](C)O2)[C@H](C)[C@@H](O[C@@H]2O[C@H](C)C[C@H](N(C)S(=O)(=O)c3ccc(Cl)cc3)[C@H]2O)[C@](C)(O)C[C@@H](C)CN[C@H](C)[C@@H](O)[C@]1(C)O [Example B-22],9 µM
4,CC[C@H]1OC(=O)[C@H](C)[C@@H](O[C@H]2C[C@@](C)(OC)[C@](O)(CNc3ccccc3)[C@H](C)O2)[C@H](C)[C@@H](O[C@@H]2O[C@H](C)C[C@H](N(C)S(=O)(=O)Nc3ccc(C(F)(F)F)cc3)[C@H]2O)[C@](C)(O)C[C@@H](C)CN[C@H](C)[C@@H](O)[C@]1(C)O [Example B-64],8 µM
5,CC[C@H]1OC(=O)[C@H](C)[C@@H](O[C@H]2C[C@@](C)(OC)[C@](O)(CNCCOC)[C@H](C)O2)[C@H](C)[C@@H](O[C@@H]2O[C@H](C)C[C@H](N(C)S(=O)(=O)Nc3ccc(C(F)(F)F)cc3)[C@H]2O)[C@](C)(O)C[C@@H](C)CN[C@H](C)[C@@H](O)[C@]1(C)O [Example B-84],51 µM
6,CC[C@H]1OC(=O)[C@H](C)[C@@H](O[C@H]2C[C@@](C)(OC)[C@](O)(CNCC3CC3)[C@H](C)O2)[C@H](C)[C@@H](O[C@@H]2O[C@H](C)C[C@H](N(C)S(=O)(=O)c3ccc(Cl)cc3)[C@H]2O)[C@](C)(O)C[C@@H](C)CN[C@H](C)[C@@H](O)[C@]1(C)O [Example B-24],10 µM
7,CC[C@H]1OC(=O)[C@H](C)[C@@H](O[C@H]2C[C@@](C)(OC)[C@](O)(CNCCCOC)[C@H](C)O2)[C@H](C)[C@@H](O[C@@H]2O[C@H](C)C[C@H](N(C)S(=O)(=O)Nc3ccc(C(F)(F)F)cc3)[C@H]2O)[C@](C)(O)C[C@@H](C)CN[C@H](C)[C@@H](O)[C@]1(C)O [Example B-78],21 µM
8,CC[C@H]1OC(=O)[C@H](C)[C@@H](O[C@H]2C[C@@](C)(OC)[C@](O)(CNc3ccccc3)[C@H](C)O2)[C@H](C)[C@@H](O[C@@H]2O[C@H](C)C[C@H](N(C)S(=O)(=O)c3ccc(Cl)cc3)[C@H]2O)[C@](C)(O)C[C@@H](C)CN[C@H](C)[C@@H](O)[C@]1(C)O [Example B-32],23 µM

# Further lines, results first:
row,IC50,Structure (SMILES)
1,7 µM,CC[C@H]1OC(=O)[C@H](C)[C@@H](O[C@H]2C[C@@](C)(OC)[C@](O)(CN3CCCCC3)[C@H](C)O2)[C@H](C)[C@@H](O[C@@H]2O[C@H](C)C[C@H](N(C)S(=O)(=O)Nc3ccc(C)c(C)c3)[C@H]2O)[C@](C)(O)C[C@@H](C)CN[C@H](C)[C@@H](O)[C@]1(C)O [Example C-33]
2,6 µM,CC[C@H]1OC(=O)[C@H](C)[C@@H](O[C@H]2C[C@@](C)(OC)[C@](O)(CN3CCCCC3)[C@H](C)O2)[C@H](C)[C@@H](O[C@@H]2O[C@H](C)C[C@H](N(C)S(=O)(=O)Nc3ccc(C(F)(F)F)cc3)[C@H]2O)[C@](C)(O)C[C@@H](C)CN(CC)[C@H](C)[C@@H](O)[C@]1(C)O [Example C-36]
3,8 µM,CC[C@H]1OC(=O)[C@H](C)[C@@H](O[C@H]2C[C@@](C)(OC)[C@](O)(CN3CCCCC3)[C@H](C)O2)[C@H](C)[C@@H](O[C@@H]2O[C@H](C)C[C@H](N(C)S(=O)(=O)Nc3ccc(Cl)c(C(F)(F)F)c3)[C@H]2O)[C@](C)(O)C[C@@H](C)CN[C@H](C)[C@@H](O)[C@]1(C)O [Example C-31]
4,15 µM,CC[C@H]1OC(=O)[C@H](C)[C@@H](O[C@H]2C[C@@](C)(OC)[C@](O)(CN3CCCCC3)[C@H](C)O2)[C@H](C)[C@@H](O[C@@H]2O[C@H](C)C[C@H](N(C)S(=O)(=O)Nc3ccccc3)[C@H]2Oc2ccccc2)[C@](C)(O)C[C@@H](C)CN[C@H](C)[C@@H](O)[C@]1(C)O [Example C-52]
5,23 µM,CC[C@H]1OC(=O)[C@H](C)[C@@H](O[C@H]2C[C@@](C)(OC)[C@](O)(CN3CCc4ccccc4C3)[C@H](C)O2)[C@H](C)[C@@H](O[C@@H]2O[C@H](C)C[C@H](N(C)S(=O)(=O)c3ccc(Cl)cc3)[C@H]2O)[C@](C)(O)C[C@@H](C)CN[C@H](C)[C@@H](O)[C@]1(C)O [Example C-10]
6,9 µM,CC[C@H]1OC(=O)[C@H](C)[C@@H](O[C@H]2C[C@@](C)(OC)[C@](O)(CN3CCCCC3)[C@H](C)O2)[C@H](C)[C@@H](O[C@@H]2O[C@H](C)C[C@H](N(C)S(=O)(=O)Nc3ccccc3)[C@H]2Oc2ccc(F)cc2)[C@](C)(O)C[C@@H](C)CN[C@H](C)[C@@H](O)[C@]1(C)O [Example C-51]
7,9 µM,CC[C@H]1OC(=O)[C@H](C)[C@@H](O[C@H]2C[C@@](C)(OC)[C@](O)(CN3CCCCC3)[C@H](C)O2)[C@H](C)[C@@H](O[C@@H]2O[C@H](C)C[C@H](N(C)S(=O)(=O)Nc3ccc(I)cc3)[C@H]2O)[C@](C)(O)C[C@@H](C)CN[C@H](C)[C@@H](O)[C@]1(C)O [Example C-30]
8,14 µM,CC[C@H]1OC(=O)[C@H](C)[C@@H](O[C@H]2C[C@@](C)(OC)[C@](O)(CN3CCCCC3)[C@H](C)O2)[C@H](C)[C@@H](O[C@@H]2O[C@H](C)C[C@H](N(C)S(=O)(=O)Nc3ccc(Br)cc3)[C@H]2O)[C@](C)(O)C[C@@H](C)CN[C@H](C)[C@@H](O)[C@]1(C)O [Example C-29]

# System: IL-6
# Experiment: Whole bovine blood assay, LPS-induced IL-6
# Format: cell-based
# Details: fresh whole bovine blood, LPS stimulant; top drug concentration 250 μM
row,Structure (SMILES),IC50
1,CC[C@H]1OC(=O)[C@H](C)[C@@H](O[C@H]2C[C@@](C)(OC)[C@](O)(CNCCS(=O)(=O)c3ccccc3)[C@H](C)O2)[C@H](C)[C@@H](O[C@@H]2O[C@H](C)C[C@H](N(C)S(=O)(=O)Nc3ccc(C(F)(F)F)cc3)[C@H]2O)[C@](C)(O)C[C@@H](C)CN[C@H](C)[C@@H](O)[C@]1(C)O [Example B-128],23 µM
2,CCCNC[C@]1(O)[C@H](C)O[C@@H](O[C@H]2[C@H](C)[C@@H](O[C@@H]3O[C@H](C)C[C@H](N(C)S(=O)(=O)c4nccn4C)[C@H]3Oc3ccc(F)cc3C)[C@](C)(O)C[C@@H](C)CN[C@H](C)[C@@H](O)[C@](C)(O)[C@@H](CC)OC(=O)[C@@H]2C)C[C@@]1(C)OC [Example B-121],5 µM
3,CC[C@H]1OC(=O)[C@H](C)[C@@H](O[C@H]2C[C@@](C)(OC)[C@](O)(CNC3CCCCC3)[C@H](C)O2)[C@H](C)[C@@H](O[C@@H]2O[C@H](C)C[C@H](N(C)S(=O)(=O)Nc3ccc(C(F)(F)F)cc3)[C@H]2O)[C@](C)(O)C[C@@H](C)CN[C@H](C)[C@@H](O)[C@]1(C)O [Example B-69],16 µM

# Further lines, results first:
row,IC50,Structure (SMILES)
1,7 µM,CC[C@H]1OC(=O)[C@H](C)[C@@H](O[C@H]2C[C@@](C)(OC)[C@](O)(CN3CCCCC3)[C@H](C)O2)[C@H](C)[C@@H](O[C@@H]2O[C@H](C)C[C@H](N(C)S(=O)(=O)Nc3ccc(C)c(C)c3)[C@H]2O)[C@](C)(O)C[C@@H](C)CN[C@H](C)[C@@H](O)[C@]1(C)O [Example C-33]
2,9 µM,CC[C@H]1OC(=O)[C@H](C)[C@@H](O[C@H]2C[C@@](C)(OC)[C@](O)(CN3CCCCC3)[C@H](C)O2)[C@H](C)[C@@H](O[C@@H]2O[C@H](C)C[C@H](N(C)S(=O)(=O)Nc3ccc(C(F)(F)F)cc3)[C@H]2O)[C@](C)(O)C[C@@H](C)CN(CC)[C@H](C)[C@@H](O)[C@]1(C)O [Example C-36]
3,4 µM,CC[C@H]1OC(=O)[C@H](C)[C@@H](O[C@H]2C[C@@](C)(OC)[C@](O)(CN3CCCCC3)[C@H](C)O2)[C@H](C)[C@@H](O[C@@H]2O[C@H](C)C[C@H](N(CC(C)C)S(=O)(=O)c3ccc(OC)cc3)[C@H]2O)[C@](C)(O)C[C@@H](C)CN[C@H](C)[C@@H](O)[C@]1(C)O [Example C-43]
4,4 µM,CC[C@H]1OC(=O)[C@H](C)[C@@H](O[C@H]2C[C@@](C)(OC)[C@](O)(CN3CCCCC3)[C@H](C)O2)[C@H](C)[C@@H](O[C@@H]2O[C@H](C)C[C@H](N(C)S(=O)(=O)c3ccc(S(F)(F)(F)(F)F)cc3)[C@H]2O)[C@](C)(O)C[C@@H](C)CN[C@H](C)[C@@H](O)[C@]1(C)O [Example C-47]
